Test results from patent US20240415825A1, “COMPOUNDS FOR THE TREATMENT OF MALARIA” (FUNDACIÓ INSTITUT DE BIOENGINYERIA DE CATALUNYA, priority 2021, published 2024).
Entries after “also recorded” stand apart in the source; their conditions may differ.

How the values were obtained:
P. falciparum K1 strain = assay: P. falciparum growth inhibition (K1 strain); format: cell-based; details: Plasmodium falciparum, read-out: IC50 in K1 strain (μM) ± SEM
[1] = system: Plasmodium berghei CTRP-GFP; assay: Gametocyte to ookinete transition inhibition; format: cell-based; details: up to a concentration of 2 μM
Procedure: Eight days before ookinete production, 200 μL of Plasmodium berghei CTRP-GFP (which expresses GFP when reaching ookinete stage) (Vlachou, D. et al., 2004) in cryopreservation solution (RBC pellet:RPMI:30% glycerol in water, 1:1:2) was administered i.p. to a BALB/c mouse. Four days later this mouse was the donor to infect i.p. with 5×10^7 parasitized red blood cells in 200 μL of PBS three mice that one hour before the infection had been pretreated i.p. with phenylhydrazine (120 μL of a 10 mg/mL solution in PBS).
For ookinete production, up to 1 mL of blood carrying gametocytes was collected from each animal by intracardiac puncture and diluted in 30 mL of ookinete medium: 10.4 g/L of RPMI supplemented with […], 0.05% w/v hypoxanthine, 0.02% w/v xanthurenic acid, 50 U/mL penicillin and 50 μg/mL streptomycin (Invitrogen), 20% heat-inactivated fetal bovine serum (FBS, Invitrogen), 25 mM HEPES, pH 7.4.
24 h later, samples were diluted 1:100 in PBS and analyzed in a LSRFortessa™ flow cytometer (BD Biosciences) set up with the 5 lasers, 20 parameters standard configuration. The GFP positive cell population was selected and counted using 488 nm laser excitation and a 525/40 nm emission collection filter. BD FACSDiva software (BD biosciences) was used in data collection, and Flowing Software 2.5.1 (Turku Centre for Biotechnology) was used for analysis.

[2] = In vivo toxicity assay in mice; design: species or system BALB/c mice; details: male mice
Procedure: BALB/c female and male mice (Janvier Laboratories) were maintained with unlimited access to food and water under standard environmental conditions (20-24° C. and 12/12 h light/dark cycle). […] First, the lowest dose was intravenously injected to one female and one male mice. An oxygen stream of 4% isoflurane was used to anesthetize the mice, which were then maintained during the whole procedure (less than 3 minutes) with 2.5% isoflurane.
After the administration, mice were observed and different parameters related to their behavior (lethargy, motility alterations, seizures, coma, automutilation, aggressiveness, vocalizations, stereotyped movements) and physical conditions (pain, respiratory disturbances, tachycardia or bradycardia, dehydration, hair loss, body weight loss, dermatitis, bad hygiene, pruritus, tearing) were followed. If after 48 h no deleterious effects were observed, the following dose was administered to two other male and female mice.

[3] = system: P. falciparum NF54-gexp02-Tom strain gametocytes; assay: microbe, parasite or virus in culture; format: cell-based; details: Plasmodium falciparum, NF54, 48 h, read-out: IC50 on early gametocytes
Procedure: Cultures of the P. falciparum NF54-gexp02-Tom strain (developed and authenticated by Portugaliza, H. P. et al., 2019 and kindly provided by Prof. Alfred Cortes), were maintained in standard conditions in RPMI medium supplemented with 0.5% Albumax II and 2 mM choline, synchronized in ring stages with sorbitol lysis, and diluted to 2% parasitemia. To trigger sexual conversion, choline was removed from the medium and cultures were maintained in the same conditions for 48 h after synchronization (cycle 0). In the next cycle (cycle 1), parasites were treated with 50 mM N-acetylglucosamine (GlcNac) in order to kill asexual parasites, and maintained in RPMI supplemented with 10% human serum. Medium was refreshed daily and GlcNac was kept during 4 days.
Controls of untreated parasites as well as of parasites treated with a lethal dose of chloroquine were prepared. Gametocytemia was monitored daily by light microscopy until the majority of parasites (˜90%) could be identified as stage V gametocytes. At that point, Giemsa smears of each well were prepared and mature gametocytes were manually counted (10,000 cells were counted for each replica by two investigators blinded to group assignment). […] Afterwards, the culture was treated for 48 h with the drugs and the gametocytemia determined as above.

Question: Which IC50 (P. falciparum K1 strain) does the source give for `COc1cc2c(cc1OC)C(=O)C(CC1CCN(CNc3c4c(nc5cc(Cl)ccc35)CCCC4)CC1)C2` (stereo not shown) [DONE3TCI] here?
Answer: Its IC50 is 0.36 ± 0.07 µM.

Question: And the “effect on ookinete development” value [1]?
Answer: Its value is “did not have an observable effect; also recorded: does not show any observable effect”.

Question: What about the “dose at which toxicity starts being observed” value [2] of the same compound?
Answer: The value was 3 mg/kg.

Question: What about the IC50 [3] of the same compound?
Answer: The IC50 was 285 ± 56 nM.
